Columns and labels:
Type in all cases: cell-based
S. aureus = tested on: S. aureus
[1] = tested on: TSST-1 production by S. aureus
Prevotella bivia = tested on: Prevotella bivia
Vaginal Microflora = tested on: Vaginal Microflora
[2] = tested on: Peptostreptococcus anaerobius

Row | Compound | OD540 (Percentage of Control) (S. aureus) | effect on bacterial toxin production (in words) [1] | further results
1 | beta-mercaptoethanol | 93 Percentage of Control |  | 
2 | CCCOC(=O)c1cc(O)c(O)c(O)c1 [Propylgallate, propyl gallate] | 74 Percentage of Control |  | 
3 | CC(=O)N[C@@H](CS)C(=O)O [N-acetyl cysteine, N-acetylcysteine] | 89 Percentage of Control | reduced toxin production | 
4 | OCC(O)CO [glycerin] |  |  | growth of P. bivia (Prevotella bivia): inhibited; growth of the isolates tested (Vaginal Microflora): did not effect the growth
5 | delta-tocopherol | 112 Percentage of Control |  | 
6 | sodium bisulfite | 64 Percentage of Control |  | 
7 | potassium bisulfite | 91 Percentage of Control |  | 
8 | CCCCCCCCCCCC(=O)OCCOCCOCCOCCOCCOCCOCCOCCOCCOCCOCCOCCOCCOCCOCCOCCOCCOCCOCCOCCOCC(OCCOCCOCCOCCOCCOCCOCCOCCOCCOCCOCCOCCOCCOCCOCCOCCOCCOCCOCCOCCO)C1OCC(OCCOCCOCCOCCOCCOCCOCCOCCOCCOCCOCCOCCOCCOCCOCCOCCOCCOCCOCCOCCO)C1OCCOCCOCCOCCOCCOCCOCCOCCOCCOCCOCCOCCOCCOCCOCCOCCOCCOCCOCCOCCO (centres unmarked) [Polysorbate 20] |  |  | growth of P. bivia (Prevotella bivia): suppressed; growth of P. anaerobius [2]: suppressed
9 | O=C1O[C@H]([C@@H](O)CO)C(O)=C1O [Ascorbic acid, ascorbic acid] | 104 Percentage of Control | reduced toxin production | reduction of toxin production [1]: up to 40%; Staphylococcal / bacterial growth (inhibition, in words) (S. aureus): does not inhibit Staphylococcal growth
10 | N[C@@H](CS)C(=O)O [Cysteine, cysteine] | 105 Percentage of Control | reduced toxin production | 
11 | Cn1c(=O)c2c(ncn2C)n(C)c1=O [Caffeine, caffeine] | 93 Percentage of Control | reduced toxin production | 
12 | thiodipropionic acid | 99 Percentage of Control |  | 

— patent US6548552B1 (priority 1997, dated 2003)
